We go through four compounds from US9856207B2, “Process for the production of ralfinamide salts substantially free from impurities having genotoxic effects” (Newron Pharmaceuticals S.p.A., priority 2010, dated 2018).

Assay type in all cases: physicochemical
The nature of data set [1]: Intrinsic Dissolution Rate (IDR) measurement according to USP General Chapter <1087>. Conditions: ralfinamide methanesulfonate solid forms, USP <1087>. Here is the method: Intrinsic dissolution rate is characteristic of each solid compound in a given solvent under fixed hydrodynamic conditions. The knowledge of this value helps in predicting if absorption would be dissolution rate-limited. The Intrinsic Dissolution Rate (IDR) measurement of ralfinamide methanesulfonate form A and H was performed according to USP General Chapter <1087>.

The nature of data set [2]: Exposure of form A crystals to air stream of high relative humidity (water uptake, solid form conversion). As to conditions: 97% RH air stream at 25° C. for two months. The text has this: As an alternative procedure to the slurring with water for converting anhydrous form A crystals containing undesired amounts of genotoxic impurities and/or of the residual solvents known as potential precursors thereof into the corresponding hemihydrate pseudopolymorph form H substantially free from the genotoxic impurities and/or the residual solvents known as potential precursors thereof, the capability of anhydrous form A crystals to uptake water from air having high degree of relative humidity may be exploited. For example, full conversion of form A crystals into the corresponding hemihydrate pseudopolymorph form H crystals can be achieved by keeping a batch of ralfinamide methanesulfonate or its R-enantiomer form A crystals under air stream having relative humidity higher than 65% at a temperature from 5° C. to 30° C. for a period of time which may vary from days to weeks or months, depending on the relative humidity degree and the temperature.

The nature of data set [3]: Solubility of the free base in water. As to conditions: also at 100° C. As to the method:
According to a preferred method to carry out the procedure defined above as “salt formation”, the formation of ralfinamide methanesulfonate form H or its R-enantiomer is carried out by using water as the sole solvent in which the free base and the methanesulfonic acid are contacted in substantially equimolecular proportion. According to a more preferred method, methanesulfonic acid is added to a suspension or emulsion of the free base in water. Generally 50-70 percent of the stoichiometric amount of the acid is initially added. […] The remaining portion of methanesulfonic acid to complete the stoichiometric amount required for the salification, or a small excess or defect (in both cases of up to 3 molar %), is subsequently added to the obtained solution. […] Therefore, it would not be possible to apply prior to the addition of the acid, any purification method implying the treatment of a solution of the free base with active charcoal or inert powder followed by filtration to remove small particles and/or impurities. […] The complementary amount of acid may be added soon after this treatment of the solution, preferably, after lowering the temperature of the mixture below 70° C.

As for `CS(=O)(=O)O.C[C@H](NCc1ccc(OCc2ccccc2F)cc1)C(N)=O` [Anhydrous form A, (S)-2-[4-(2-fluorobenzyloxy)benzylamino]propanamide methanesulfonate], the “Intrinsic Dissolution Rate” value in data set [1] is 1.527 ± 0.265 mg · cm−2 · min−1. Further, the “Solid form stability under humid air” value in data set [2] is “fully converted into the form H”. On to `CS(=O)(=O)O.C[C@H](NCc1ccc(OCc2ccccc2F)cc1)C(N)=O` [Hemihydrate form H, (S)-2-[4-(2-fluorobenzyloxy)benzylamino]propanamide methanesulfonate], for which, in data set [1], the “Intrinsic Dissolution Rate” value is 0.857 ± 0.012 mg · cm−2 · min−1. On to `C[C@@H](NCc1ccc(OCc2ccccc2F)cc1)C(N)=O` [R-enantiomer, (R)-2-[4-(2-fluorobenzyloxy)benzylamino]propanamide], for which the Solubility in water entry in data set [3] was “practically insoluble in water”. In the case of `C[C@H](NCc1ccc(OCc2ccccc2F)cc1)C(N)=O` [Ralfinamide free base, (S)-2-[4-(2-fluorobenzyloxy)benzylamino]propanamide], the Solubility in water result in data set [3] is recorded as “practically insoluble in water”.
